This note sets out measurements from patent US20160067295A1, “WALNUT EXTRACTS FOR NUTRACEUTICAL APPLICATIONS” (priority 2009, published 2016).

Assay [1] has as its target human blood (acetyl) cholinesterase (Homo sapiens, UniProt P22303). To be noted: for inhibition of acetyl cholinesterase (in words): 1 mg Phosphatidylcholine per ml test solution, FIG. 4, FIG. 5; for % activity of AchE: remaining activity within 5 minutes of incubation; for % activity of AchE / % inhibited part of activity of AchE: 1 mg/ml test solution; for % inhibited part of activity of AchE: within 5 minutes of incubation.

Assay [2] addresses T1, Amyloid [A]β1-40 aggregates (Homo sapiens, UniProt P05067).
T1 construct: Amyloid [A] β1-40 (Sigma-Aldrich, A 1075); purchased Sigma-Aldrich A 1075
Put plainly: Defibrillization assay: dissolution of already formed amyloid Aβ-aggregates (Thioflavin T fluorescence). The assay is classed as biochemical. To be noted: 12 mg PC/ml test assay for walnut extracts, 12 mg PC Soy or PS Soy/ml; FIG. 3. On the procedure: In this example, the highest concentrations of the walnut extracts (12 mg PC/ml test assay for the walnut extracts, 12 mg PC Soy or PS Soy/ml) were evaluated for their ability to reverse an already formed aggregate of amyloid-β.
Defibrillization efficacy is indicative for treatment of Alzheimer disease.
Dissolution of amyloid Aβ-aggregates by ES2008-021 and ES2008-022-Defibrillization assay
In a further extension of the test system, the above samples were evaluated for their ability to reverse an already formed aggregate of amyloid-β. Defibrillization efficacy is indicative for curing of Alzheimer disease.
Dissolution of amyloid Aβ-aggregates was induced by incubation with walnut extract. At each concentration of walnut extract (0.625, 1.25, 2.5, 5.0 or 7.5 μl ES2008-022 or 0.625, 1.25, 2.5, 5.0 or 7.5 μl from a stock solution containing 125 mg ES2008-021/ml) three samples were incubated and evaluated. […]
After 3 days each sample is mixed with 2 μM ([…]) Thioflavin T and 950 μl glycine/NaOH buffer (50 mM glycine, pH=9.0). Fluorescence was measured at ex 435 nm/em 485 nm.
Subtract fluorescence intensity for the corresponding “reagent blank samples” from each “active sample”. Compare the resulting fluorescence intensity with the fluorescence intensity measured for the control sample. […]

human blood (acetyl) cholinesterase, sequence (P22303 32-617 isoform P22303-2 limits assumed): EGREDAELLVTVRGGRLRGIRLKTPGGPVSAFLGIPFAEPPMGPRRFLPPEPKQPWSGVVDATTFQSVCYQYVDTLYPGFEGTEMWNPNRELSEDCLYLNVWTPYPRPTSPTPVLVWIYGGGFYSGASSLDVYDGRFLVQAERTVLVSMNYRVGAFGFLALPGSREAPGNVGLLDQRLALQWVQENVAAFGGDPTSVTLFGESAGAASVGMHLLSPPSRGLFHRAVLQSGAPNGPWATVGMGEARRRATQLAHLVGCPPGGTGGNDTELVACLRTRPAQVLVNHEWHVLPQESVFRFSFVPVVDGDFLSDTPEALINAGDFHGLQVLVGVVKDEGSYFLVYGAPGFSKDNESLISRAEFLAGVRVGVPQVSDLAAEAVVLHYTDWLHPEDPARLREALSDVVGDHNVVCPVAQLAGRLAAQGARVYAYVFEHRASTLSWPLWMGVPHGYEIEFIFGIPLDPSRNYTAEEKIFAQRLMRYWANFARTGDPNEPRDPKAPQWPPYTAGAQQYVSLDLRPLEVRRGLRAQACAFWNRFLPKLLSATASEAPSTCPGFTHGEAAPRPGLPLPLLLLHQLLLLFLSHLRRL
T1 sequence (P05067 672-711 limits assumed): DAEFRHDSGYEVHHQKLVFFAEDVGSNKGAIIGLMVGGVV

As to phosphatidylcholine [PC Soy Bean], in assay [1], the “inhibition of acetyl cholinesterase (in words)” value is “almost inactive”, the “% activity of AchE” value was determined as 88.2% and the “% inhibited part of activity of AchE” value came out at 11.8%. Further, the “defibrillization efficacy (in words)” value in assay [2] was “less potent in defibrillization”.

For phosphatidylserine [PS Soy Bean], in assay [1], the “inhibition of acetyl cholinesterase (in words)” value was “almost inactive”, the “% activity of AchE” value was found to be 94.0% and the “% inhibited part of activity of AchE” value was found to be 6.0%. In assay [2], the “defibrillization efficacy (in words)” value is “less potent in defibrillization”.
